Literature values in patent publication US20170027865A1, “Dry Pharmaceutical Compositions for Topical Delivery of Oral Medications, Nasal Delivery and to Treat Ear Disorders” (CMPD LICENSING LLC, priority 2013, published 2017).

Legend:
[1] = system: Paracoccidioides brasiliensis

Measured: Expected coverage

C[C@@H](c1ncncc1F)[C@](O)(Cn1cncn1)c1ccc(F)cc1F [Voriconazole, voriconazole]
yes: Candida species | Aspergillus fumigatus | Fusarium species | Aspergillus flavus | Scedosporium apiospermum | Aspergillus niger | Aspergillus terreus

C[C@@H]1[C@H](O)[C@@H](C)/C=C/C=C/C=C/C=C/C=C/C=C/C=C/[C@H](O[C@@H]2O[C@H](C)[C@@H](O)[C@H](N)[C@@H]2O)C[C@@H]2O[C@](O)(C[C@@H](O)C[C@@H](O)[C@H](O)CC[C@@H](O)C[C@@H](O)CC(=O)O[C@H]1C)C[C@H](O)[C@H]2C(=O)O [Amphotericin, amphotericin B]
yes: Leishmania infantum | Candida species | Histoplasma capsulatum | Aspergillus fumigatus | Aspergillus flavus | Cryptococcus neoformans | Coccidioides immitis | Blastomyces dermatitidis | Leishmania donovani | Aspergillus niger | [1] | Aspergillus terreus

OC(Cn1cncn1)(Cn1cncn1)c1ccc(F)cc1F [Fluconazole, fluconazole]
yes: Candida species | Histoplasma capsulatum | Aspergillus fumigatus | Aspergillus flavus | Cryptococcus neoformans | Coccidioides immitis | Blastomyces dermatitidis
